This experiment concerns BDF1 mice, B16 melanoma ip, median survival T/C. The experiment is described as follows: NCI In Vivo Anticancer Drug Screen. Data for tumor model B16 Melanoma (intraperitoneal) in B6D2F1 (BDF1) mice. As to conditions: endpoint: median survival time, higher = longer survival. In outline: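 Transplantable tumor model; survival or tumor size measured; reported as T/C, treated over vehicle control.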

Setting [1] is: dose: 50.0 mg/kg/injection, schedule: Q01DX009 (ip), vehicle: saline.
Where [2] appears, read: dose: 3.12 mg/kg/injection, schedule: Q01DX009 (ip), vehicle: Klucel (hydroxypropylcellulose) (HPC).
[3] abbreviates: dose: 6.25 mg/kg/injection, schedule: Q01DX009 (ip), vehicle: Klucel (hydroxypropylcellulose) (HPC).
Setting [4] is: dose: 12.5 mg/kg/injection, schedule: Q01DX009 (ip), vehicle: Klucel (hydroxypropylcellulose) (HPC).
The mark [5] stands for this setting: dose: 25.0 mg/kg/injection, schedule: Q01DX009 (ip), vehicle: Klucel (hydroxypropylcellulose) (HPC).
Setting [6] is: dose: 100.0 mg/kg/injection, schedule: Q01DX009 (ip), vehicle: saline with Tween-80.
Where [7] appears, read: dose: 200.0 mg/kg/injection, schedule: Q01DX009 (ip), vehicle: saline with Tween-80.
Where [8] appears, read: dose: 50.0 mg/kg/injection, schedule: Q01DX009 (ip), vehicle: Klucel (hydroxypropylcellulose) (HPC).
The mark [9] stands for this setting: dose: 100.0 mg/kg/injection, schedule: Q01DX009 (ip), vehicle: Klucel (hydroxypropylcellulose) (HPC).
The mark [10] stands for this setting: dose: 200.0 mg/kg/injection, schedule: Q01DX009 (ip), vehicle: Klucel (hydroxypropylcellulose) (HPC).
[11] abbreviates: dose: 12.5 mg/kg/injection, schedule: Q01DX009 (ip), vehicle: saline with Tween-80.
The mark [12] stands for this setting: dose: 50.0 mg/kg/injection, schedule: Q01DX009 (ip), vehicle: saline with Tween-80.
Where [13] appears, read: dose: 400.0 mg/kg/injection, schedule: Q01DX009 (ip), vehicle: Klucel (hydroxypropylcellulose) (HPC).

Where “and” joins values, the source holds several entries; their conditions need not be identical. Equal entries are not always repeated. Inconclusive results and toxic doses are left out.

As to `CN(C)CCC#N`, the T/C by setting is: under setting [1], 113 % of control and 122 % of control; (dose: 100.0 mg/kg/injection, schedule: Q01DX009 (ip), vehicle: saline) 110 % of control and 113 % of control; (dose: 200.0 mg/kg/injection, schedule: Q01DX009 (ip), vehicle: saline) 105 % of control and 122 % of control.
Regarding `CC(NC(=O)OCc1ccccc1)C(=O)O` (stereo not given), the T/C under setting [2] was 97 % of control; the T/C under setting [3] was 88 % of control; the T/C under setting [4] is 94 % of control; the T/C under setting [5] was 88 % of control; the T/C (dose: 100.0 mg/kg/injection, schedule: Q04DX003 (ip), vehicle: Klucel (hydroxypropylcellulose) (HPC)) is 88 % of control.
As for `Cc1ccc([N+](=O)[O-])c2ccccc12`, the T/C is 97 % of control under setting [6] and 88 % of control under setting [7].
For `O=C1NC(c2ccccc2)(c2ccccc2)C(=O)N1CCN(CCCl)CCCl`, the T/C reads like this: (dose: 1.3 mg/kg/injection, schedule: Q01DX009 (ip), vehicle: Klucel (hydroxypropylcellulose) (HPC)) 93 % of control; (dose: 2.0 mg/kg/injection, schedule: Q01DX009 (ip), vehicle: Klucel (hydroxypropylcellulose) (HPC)) 105 % of control; under setting [2], 160 % of control; under setting [3], 161 % of control; under setting [5], 103 % of control; under setting [8], 153 % of control.
Take `CC([NH-])C[NH-].[Cl][Pt+2][Cl]` (stereo not given): the T/C by setting is: (dose: 0.31 mg/kg/injection, schedule: Q01DX009 (ip), vehicle: saline) 102 % of control; (dose: 0.31 mg/kg/injection, schedule: Q04DX003 (ip), vehicle: saline) 89 % of control; (dose: 0.62 mg/kg/injection, schedule: Q01DX009 (ip), vehicle: saline) 112 % of control; (dose: 0.62 mg/kg/injection, schedule: Q04DX003 (ip), vehicle: saline) 100 % of control; (dose: 1.25 mg/kg/injection, schedule: Q01DX009 (ip), vehicle: saline) 110 % of control; (dose: 1.25 mg/kg/injection, schedule: Q04DX003 (ip), vehicle: saline) 107 % of control.
As for `Clc1ccc(/C=N\N=C\c2ccc(Cl)c(Cl)c2)cc1Cl`, the T/C is 90 % of control under setting [9] and 90 % of control under setting [10].
On to `ClC=P(c1ccccc1)(c1ccccc1)c1ccccc1`, for which the T/C is, setting by setting: under setting [11], 90 % of control; (dose: 25.0 mg/kg/injection, schedule: Q01DX009 (ip), vehicle: saline with Tween-80) 90 % of control; (dose: 33.0 mg/kg/injection, schedule: Q04DX003 (ip), vehicle: saline with Tween-80) 91 % of control; under setting [12], 92 % of control and 95 % of control; (dose: 50.0 mg/kg/injection, schedule: Q04DX003 (ip), vehicle: saline with Tween-80) 152 % of control; (dose: 75.0 mg/kg/injection, schedule: Q04DX003 (ip), vehicle: saline with Tween-80) 86 % of control.
On to `COc1cc2cc[n+](C)c(Cc3ccccc3)c2cc1OC`, for which the T/C reads like this: under setting [2], 102 % of control; under setting [3], 102 % of control; under setting [4], 102 % of control; under setting [5], 104 % of control.
As for `CCCCCCCCCCCCNC(=O)CCl`, the T/C was 104 % of control under setting [9], 102 % of control under setting [10] and 100 % of control under setting [13].
For the compound `CC(C)C(=O)OCC1OC(n2cnc3c(=S)nc(N)[nH]c32)C(OC(=O)C(C)C)C1OC(=O)C(C)C` (stereo not given), the T/C by setting is: (dose: 3.13 mg/kg/injection, schedule: Q01DX009 (ip), vehicle: saline with Tween-80) 114 % of control; (dose: 6.25 mg/kg/injection, schedule: Q01DX009 (ip), vehicle: saline with Tween-80) 108 % of control; under setting [11], 110 % of control.
On to `CN(C)C1=C(N2CC2)C(=O)C(N(C)C)=C(N2CC2)C1=O`, for which the T/C (dose: 0.12 mg/kg/injection, schedule: Q01DX009 (ip), vehicle: saline) is 106 % of control; the T/C (dose: 0.25 mg/kg/injection, schedule: Q01DX009 (ip), vehicle: saline) is 112 % of control; the T/C (dose: 0.5 mg/kg/injection, schedule: Q01DX009 (ip), vehicle: saline) was 93 % of control; the T/C (dose: 1.0 mg/kg/injection, schedule: Q01DX009 (ip), vehicle: saline) was 112 % of control.
On to `CC(=O)c1ccccc1I`, for which the T/C runs as follows: under setting [5], 102 % of control and 113 % of control; under setting [8], 105 % of control and 106 % of control; under setting [9], 105 % of control and 106 % of control; under setting [10], 102 % of control and 106 % of control.
Regarding `O=c1[nH]cc(F)c(=O)n1-c1ccco1`, the T/C by setting is: (dose: 12.5 mg/kg/injection, schedule: Q01DX011 (ip), vehicle: saline with Tween-80) 122 % of control; (dose: 25.0 mg/kg/injection, schedule: Q01DX011 (ip), vehicle: saline with Tween-80) 115 % of control.
For the compound `COC1(OC)C2C=CC1CC2`, the T/C runs as follows: under setting [12], 97 % of control; under setting [6], 97 % of control; under setting [7], 90 % of control; (dose: 400.0 mg/kg/injection, schedule: Q01DX009 (ip), vehicle: saline with Tween-80) 96 % of control.
Consider `CC#CCOCC(O)CO` (stereo not given), for which the T/C runs as follows: (dose: 12.5 mg/kg/injection, schedule: Q01DX009 (ip), vehicle: water) 105 % of control; (dose: 25.0 mg/kg/injection, schedule: Q01DX009 (ip), vehicle: water) 93 % of control; (dose: 50.0 mg/kg/injection, schedule: Q01DX009 (ip), vehicle: water) 113 % of control; (dose: 100.0 mg/kg/injection, schedule: Q01DX009 (ip), vehicle: water) 114 % of control.
In the case of `CC1CCCC(C)N1C1=NCCO1` (stereo not given), the T/C runs as follows: (dose: 5.0 mg/kg/injection, schedule: Q01DX009 (ip), vehicle: saline with Tween-80) 100 % of control; (dose: 5.0 mg/kg/injection, schedule: Q04DX003 (ip), vehicle: saline with Tween-80) 100 % of control; (dose: 10.0 mg/kg/injection, schedule: Q01DX009 (ip), vehicle: saline with Tween-80) 112 % of control; (dose: 10.0 mg/kg/injection, schedule: Q04DX003 (ip), vehicle: saline with Tween-80) 97 % of control; (dose: 20.0 mg/kg/injection, schedule: Q01DX009 (ip), vehicle: saline with Tween-80) 92 % of control; (dose: 20.0 mg/kg/injection, schedule: Q04DX003 (ip), vehicle: saline with Tween-80) 100 % of control.
`O=C1NC(c2cccc(OCc3ccccc3)c2)Nc2ccccc21` (stereo not given): the T/C by setting is: under setting [5], 92 % of control; under setting [8], 100 % of control; under setting [9], 103 % of control; under setting [10], 108 % of control.
For `Cc1cc(OCc2nc(N)nc(N)c2-c2ccc(Cl)c(Cl)c2)ccc1NS(=O)(=O)c1cccc(S(=O)(=O)F)c1`, the T/C (dose: 117.0 mg/kg/injection, schedule: Q04DX003 (ip), vehicle: saline) is 122 % of control and the T/C (dose: 400.0 mg/kg/injection, schedule: Q04DX003 (ip), vehicle: saline) was 117 % of control.
With `CNC1=C(N2CC2)C(=O)C(NC)=C(N2CC2)C1=O`, the T/C reads like this: (dose: 0.01 mg/kg/injection, schedule: Q01DX009 (ip), vehicle: saline) 102 % of control; (dose: 0.1 mg/kg/injection, schedule: Q01DX009 (ip), vehicle: saline) 108 % of control; (dose: 0.2 mg/kg/injection, schedule: Q01DX009 (ip), vehicle: saline) 94 % of control.
Regarding `O=[N+]([O-])c1ccc(Oc2ccc(Cl)cc2)cc1`, the T/C is, setting by setting: under setting [9], 93 % of control; under setting [10], 93 % of control; under setting [13], 100 % of control.
In the case of `N#CCCN(CCC#N)c1ccc(C=O)cc1`, the T/C runs as follows: under setting [9], 104 % of control; under setting [10], 98 % of control; under setting [13], 102 % of control.
As to `CNC(=O)Oc1c(C)occc1=O`, the T/C was 100 % of control (dose: 6.25 mg/kg/injection, schedule: Q01DX009 (ip), vehicle: saline); 90 % of control (dose: 12.5 mg/kg/injection, schedule: Q01DX009 (ip), vehicle: saline); 100 % of control (dose: 25.0 mg/kg/injection, schedule: Q01DX009 (ip), vehicle: saline); 97 % of control under setting [1].
On to `COC(=O)c1ccccc1C=C(c1ccc([N+](=O)[O-])cc1)c1ccc([N+](=O)[O-])cc1`, for which the T/C reads like this: under setting [12], 97 % of control; under setting [6], 113 % of control; under setting [7], 91 % of control.
Consider `CCC1OC(=O)CC(O)C(C)C(OC2OC(C)C(O)C(N(C)C)C2O)C(CC=O)CC(C)C(=O)/C=C/C2(C)OC2C1C` (stereo not given), for which the T/C is 96 % of control under setting [4], 97 % of control under setting [5], 98 % of control under setting [8] and 88 % of control under setting [9].

The values are drawn from PubChem BioAssay AID192 (DTP/NCI, 2004).
